{"source": "patent US11814352B2", "about": "“Salts formed by 2-(1-acyloxy-n-pentyl) benzoic acid and basic amino acid or aminoguanidine, and preparation method and application thereof” (JIANGSU KANION PHARMACEUTICAL CO., LTD., priority 2018, dated 2023)", "key": {"[1]": {"tested_on": "bleeding time in mice after tail cutting", "experiment": "Effect on bleeding time in mice after tail cutting", "type": "in vivo, Kunming mice", "conditions": "5 mg/kg orally once a day for 14 days, 1 h after last dose", "protocol": "SPF Kunming mice, weighing 18-22 g, purchased from Beijing Vital River Laboratory Animal Technology Co., Ltd., having a certificate number of SCXK (Beijing) 2010-0002, raised in an SPF animal room with indoor temperature controlled at 23±2° C., and allowed to freely eat and drink. The day and night time was 12 h/12 h.\nThe administration dose level of the positive drug groups and the test drug groups was 5 mg/kg, and the same amount of normal saline was given to the negative control group. All mice were administered for 14 consecutive days orally once a day. One hour after the last dose, the mice were anesthetized with 1-2% isoflurane, and the tails were cut for 5 mm. The tips of the tails were absorbed dry with filter paper every 30 seconds until the bleeding stopped naturally. Bleeding time is defined as the interval between the start and stop of bleeding."}, "MCAO rats": {"tested_on": "MCAO rats", "experiment": "Cerebral infarction, cerebral edema and nerve function of rats with focal cerebral ischemia (MCAO)", "type": "in vivo, SD rats", "conditions": "MCAO rats; for inhibition at 10 mg/kg/day: Rattus norvegicus"}, "[2]": {"conditions": "10 mg/kg/day iv 3 days (combinations equimolar), first dose 2 h after reperfusion"}}, "note": "Read-outs that look alike come from different tables or passages of the source."}
{"smiles": "CCCC[C@H](OC(C)=O)c1ccccc1C(=O)O", "note": "[I1s, L-Arginine (S)-2-(1-Acetoxy-n-Pentyl) Benzoate]", "values": [{"measurement": "Bleeding time", "setting": "[1]", "value": "25.31 ± 1.01", "unit": "min"}, {"measurement": "Cerebral edema", "setting": "MCAO rats; [2]", "value": "0.18 ± 3.96", "unit": "%"}, {"measurement": "Infarct volume", "setting": "MCAO rats; [2]", "value": "9.12 ± 1.18", "unit": "%"}, {"measurement": "Neurological function of rats with focal cerebral ischemia", "setting": "MCAO rats; 10 mg/kg/day iv, 2 h after reperfusion", "value": "significant neurological improvement effects"}, {"measurement": "inhibition at 10 mg/kg/day", "setting": "MCAO rats; 10 mg/kg/day iv 3 days (combinations equimolar), first dose 2 h after reperfusion, read-out: Inhibition rate of cerebral edema", "value": 98.8, "unit": "%"}, {"measurement": "inhibition at 10 mg/kg/day", "setting": "MCAO rats; 10 mg/kg/day iv 3 days (combinations equimolar), first dose 2 h after reperfusion, read-out: Inhibition rate of infarct volume", "value": 78.2, "unit": "%"}]}
